In publication PMC7827406, “Structure–Activity Relationship (SAR) Study of Spautin-1 to Entail the Discovery of Novel NEK4 Inhibitors” (International Journal of Molecular Sciences, 2021):
Where two headings read alike, the source gives them in different places.

Tests used:
Experiment in all cases: biochemical
Parameters in all cases: Eurofins KinaseProfiler full panel at Km ATP, residual kinase activity (%) relative to DMSO
Snk(h) = target: T1, Snk(h) (Homo sapiens, UniProt Q9NYY3)
T1 construct: gene PLK2
Method in brief: (§1)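 Compounds screened at 10 µM in radiometric kinase activity assays at Km ATP, reported as remaining kinase activity (%). A KINOMEscan competition-binding screen at 10 µM measured DNA-tagged kinase retained on immobilized active-site ligand by qPCR.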

PRKG2(h) = target: T2, PRKG2(h) (Homo sapiens, UniProt Q13237)
T2 sequence (Q13237 1-762): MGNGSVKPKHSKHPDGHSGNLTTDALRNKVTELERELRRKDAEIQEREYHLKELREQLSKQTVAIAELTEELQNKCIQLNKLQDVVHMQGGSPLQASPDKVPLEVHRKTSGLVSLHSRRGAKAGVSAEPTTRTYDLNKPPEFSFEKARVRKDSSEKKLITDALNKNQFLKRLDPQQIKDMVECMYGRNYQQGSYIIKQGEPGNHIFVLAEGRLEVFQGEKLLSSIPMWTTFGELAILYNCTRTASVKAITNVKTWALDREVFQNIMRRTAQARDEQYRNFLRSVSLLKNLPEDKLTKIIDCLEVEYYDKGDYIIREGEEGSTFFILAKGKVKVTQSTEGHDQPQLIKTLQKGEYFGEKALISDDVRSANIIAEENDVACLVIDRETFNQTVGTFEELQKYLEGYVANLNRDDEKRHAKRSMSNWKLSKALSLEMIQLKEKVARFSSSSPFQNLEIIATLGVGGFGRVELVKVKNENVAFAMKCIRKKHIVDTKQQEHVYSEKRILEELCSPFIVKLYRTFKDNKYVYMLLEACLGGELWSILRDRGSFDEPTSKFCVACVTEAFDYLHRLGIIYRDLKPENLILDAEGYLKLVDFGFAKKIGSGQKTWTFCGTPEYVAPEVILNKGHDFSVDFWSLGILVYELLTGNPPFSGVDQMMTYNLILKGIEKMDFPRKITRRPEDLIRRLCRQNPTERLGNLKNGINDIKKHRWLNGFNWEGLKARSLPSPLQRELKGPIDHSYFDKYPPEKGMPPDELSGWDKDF
Method in brief: as §1

MAK(h) = target: T3, MAK(h) (Homo sapiens, UniProt P20794)
T3 sequence (P20794 1-623): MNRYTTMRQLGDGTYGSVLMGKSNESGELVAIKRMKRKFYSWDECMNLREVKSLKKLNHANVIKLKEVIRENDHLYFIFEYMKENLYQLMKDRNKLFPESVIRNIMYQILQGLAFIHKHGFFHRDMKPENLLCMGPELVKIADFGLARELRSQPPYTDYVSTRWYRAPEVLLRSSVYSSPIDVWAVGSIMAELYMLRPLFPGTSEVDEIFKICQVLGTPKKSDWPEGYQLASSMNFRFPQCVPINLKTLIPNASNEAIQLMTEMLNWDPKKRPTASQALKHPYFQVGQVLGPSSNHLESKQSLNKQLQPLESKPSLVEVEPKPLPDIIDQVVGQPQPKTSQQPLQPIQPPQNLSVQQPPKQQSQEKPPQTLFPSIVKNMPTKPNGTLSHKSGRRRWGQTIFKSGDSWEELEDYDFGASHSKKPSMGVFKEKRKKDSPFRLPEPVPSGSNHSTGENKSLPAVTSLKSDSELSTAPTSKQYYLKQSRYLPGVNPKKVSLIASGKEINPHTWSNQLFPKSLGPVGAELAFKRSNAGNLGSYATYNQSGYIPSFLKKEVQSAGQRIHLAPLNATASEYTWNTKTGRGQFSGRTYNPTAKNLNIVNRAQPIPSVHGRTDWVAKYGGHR
Method in brief: as §1

IR(h), activated = target: T4, IR(h), activated (Homo sapiens, UniProt P06213)
T4 construct: gene INSR
Method in brief: as §1

PKA(h) = target: T5, PKA(h) (Homo sapiens, UniProt P17612)
T5 construct: gene PRKACA
Method in brief: as §1

VRK1(h) = target: T6, VRK1(h) (Homo sapiens, UniProt Q99986)
T6 sequence (Q99986 1-396): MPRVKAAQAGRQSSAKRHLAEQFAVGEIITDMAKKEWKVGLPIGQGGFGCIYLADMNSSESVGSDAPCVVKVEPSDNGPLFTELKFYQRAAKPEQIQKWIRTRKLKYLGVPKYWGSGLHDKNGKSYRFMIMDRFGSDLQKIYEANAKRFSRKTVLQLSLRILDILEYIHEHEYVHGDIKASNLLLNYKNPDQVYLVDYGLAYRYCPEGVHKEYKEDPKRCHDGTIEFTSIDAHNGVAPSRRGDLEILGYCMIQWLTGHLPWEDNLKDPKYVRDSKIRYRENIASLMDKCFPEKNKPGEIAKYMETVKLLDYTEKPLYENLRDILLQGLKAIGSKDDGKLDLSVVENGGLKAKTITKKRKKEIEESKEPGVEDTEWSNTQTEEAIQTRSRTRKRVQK
Method in brief: as §1

SIK2(h) = SIK2(h) (Homo sapiens, UniProt Q9H0K1)
Method in brief: as §1

Rsk2(h) = target: T7, Rsk2(h) (Homo sapiens, UniProt P51812)
T7 construct: gene RPS6KA3
Method in brief: as §1

[1] = read-out: Residual activity (%) 5ay
[2] = read-out: Residual activity (%) Spautin-1 5aa
[3] = read-out: Residual activity (%) 5at
[4] = read-out: Residual activity (%) 5as

T1 sequence (Q9NYY3 whole entry): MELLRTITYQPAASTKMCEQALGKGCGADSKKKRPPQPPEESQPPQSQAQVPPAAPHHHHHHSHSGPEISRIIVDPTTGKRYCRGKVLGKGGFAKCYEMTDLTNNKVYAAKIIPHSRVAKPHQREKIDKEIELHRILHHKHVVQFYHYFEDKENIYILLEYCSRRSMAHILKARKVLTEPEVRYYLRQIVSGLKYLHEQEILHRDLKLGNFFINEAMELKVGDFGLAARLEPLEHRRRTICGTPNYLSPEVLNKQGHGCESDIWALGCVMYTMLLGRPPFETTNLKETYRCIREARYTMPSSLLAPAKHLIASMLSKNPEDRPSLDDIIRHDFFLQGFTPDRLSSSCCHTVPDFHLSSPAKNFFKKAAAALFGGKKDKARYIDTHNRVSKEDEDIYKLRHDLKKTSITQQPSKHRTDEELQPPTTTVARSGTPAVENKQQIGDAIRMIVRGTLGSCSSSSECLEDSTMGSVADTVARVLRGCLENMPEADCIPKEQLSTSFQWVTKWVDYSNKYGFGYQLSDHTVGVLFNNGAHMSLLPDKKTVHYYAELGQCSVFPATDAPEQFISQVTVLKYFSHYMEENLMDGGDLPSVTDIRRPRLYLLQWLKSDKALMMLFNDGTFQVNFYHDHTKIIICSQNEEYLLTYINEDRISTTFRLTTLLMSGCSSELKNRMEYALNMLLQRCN
SIK2(h), sequence (Q9H0K1 whole entry): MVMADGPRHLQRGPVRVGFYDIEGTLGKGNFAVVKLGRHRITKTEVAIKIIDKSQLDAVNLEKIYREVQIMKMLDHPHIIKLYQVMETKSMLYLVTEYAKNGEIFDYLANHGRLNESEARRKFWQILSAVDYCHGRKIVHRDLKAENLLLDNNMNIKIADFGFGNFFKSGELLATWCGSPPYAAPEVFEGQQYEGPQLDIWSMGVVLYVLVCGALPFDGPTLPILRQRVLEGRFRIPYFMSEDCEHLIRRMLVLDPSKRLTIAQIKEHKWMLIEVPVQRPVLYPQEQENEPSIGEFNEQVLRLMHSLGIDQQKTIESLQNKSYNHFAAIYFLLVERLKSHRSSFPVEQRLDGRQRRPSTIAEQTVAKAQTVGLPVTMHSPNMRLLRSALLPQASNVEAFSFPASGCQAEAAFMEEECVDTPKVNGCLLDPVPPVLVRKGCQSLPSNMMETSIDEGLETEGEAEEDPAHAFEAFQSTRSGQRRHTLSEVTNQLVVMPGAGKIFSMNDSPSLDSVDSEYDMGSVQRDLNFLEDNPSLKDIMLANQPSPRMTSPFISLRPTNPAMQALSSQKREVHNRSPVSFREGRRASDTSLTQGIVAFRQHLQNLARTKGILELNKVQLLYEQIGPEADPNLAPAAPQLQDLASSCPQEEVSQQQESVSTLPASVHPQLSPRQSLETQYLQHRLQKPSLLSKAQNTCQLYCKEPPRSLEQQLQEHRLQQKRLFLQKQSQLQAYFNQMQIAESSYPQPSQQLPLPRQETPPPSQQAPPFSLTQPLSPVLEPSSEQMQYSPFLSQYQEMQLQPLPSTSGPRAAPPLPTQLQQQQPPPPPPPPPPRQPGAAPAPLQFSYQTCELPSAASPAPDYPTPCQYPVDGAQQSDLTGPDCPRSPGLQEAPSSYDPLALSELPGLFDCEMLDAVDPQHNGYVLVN
T7 sequence (P51812 whole entry): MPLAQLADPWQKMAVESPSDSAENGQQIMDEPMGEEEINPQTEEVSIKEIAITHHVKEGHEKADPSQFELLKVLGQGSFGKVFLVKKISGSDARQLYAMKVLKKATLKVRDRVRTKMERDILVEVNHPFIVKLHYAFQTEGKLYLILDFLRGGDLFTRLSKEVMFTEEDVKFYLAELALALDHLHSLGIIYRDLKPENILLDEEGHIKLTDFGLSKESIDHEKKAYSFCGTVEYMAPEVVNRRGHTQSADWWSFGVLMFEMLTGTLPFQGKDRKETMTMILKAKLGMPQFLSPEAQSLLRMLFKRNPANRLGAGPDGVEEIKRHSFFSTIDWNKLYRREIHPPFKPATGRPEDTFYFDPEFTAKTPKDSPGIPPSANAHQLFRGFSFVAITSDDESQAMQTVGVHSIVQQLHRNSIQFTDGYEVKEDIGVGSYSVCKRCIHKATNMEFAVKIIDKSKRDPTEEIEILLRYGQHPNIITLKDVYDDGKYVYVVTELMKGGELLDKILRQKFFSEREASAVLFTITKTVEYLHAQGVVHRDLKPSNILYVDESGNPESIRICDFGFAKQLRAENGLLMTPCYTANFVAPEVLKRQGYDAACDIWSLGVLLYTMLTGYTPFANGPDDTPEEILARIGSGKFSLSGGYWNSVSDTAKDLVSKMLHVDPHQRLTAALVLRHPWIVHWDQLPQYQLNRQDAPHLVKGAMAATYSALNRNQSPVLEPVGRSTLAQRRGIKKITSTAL
T4 sequence (P06213 whole entry): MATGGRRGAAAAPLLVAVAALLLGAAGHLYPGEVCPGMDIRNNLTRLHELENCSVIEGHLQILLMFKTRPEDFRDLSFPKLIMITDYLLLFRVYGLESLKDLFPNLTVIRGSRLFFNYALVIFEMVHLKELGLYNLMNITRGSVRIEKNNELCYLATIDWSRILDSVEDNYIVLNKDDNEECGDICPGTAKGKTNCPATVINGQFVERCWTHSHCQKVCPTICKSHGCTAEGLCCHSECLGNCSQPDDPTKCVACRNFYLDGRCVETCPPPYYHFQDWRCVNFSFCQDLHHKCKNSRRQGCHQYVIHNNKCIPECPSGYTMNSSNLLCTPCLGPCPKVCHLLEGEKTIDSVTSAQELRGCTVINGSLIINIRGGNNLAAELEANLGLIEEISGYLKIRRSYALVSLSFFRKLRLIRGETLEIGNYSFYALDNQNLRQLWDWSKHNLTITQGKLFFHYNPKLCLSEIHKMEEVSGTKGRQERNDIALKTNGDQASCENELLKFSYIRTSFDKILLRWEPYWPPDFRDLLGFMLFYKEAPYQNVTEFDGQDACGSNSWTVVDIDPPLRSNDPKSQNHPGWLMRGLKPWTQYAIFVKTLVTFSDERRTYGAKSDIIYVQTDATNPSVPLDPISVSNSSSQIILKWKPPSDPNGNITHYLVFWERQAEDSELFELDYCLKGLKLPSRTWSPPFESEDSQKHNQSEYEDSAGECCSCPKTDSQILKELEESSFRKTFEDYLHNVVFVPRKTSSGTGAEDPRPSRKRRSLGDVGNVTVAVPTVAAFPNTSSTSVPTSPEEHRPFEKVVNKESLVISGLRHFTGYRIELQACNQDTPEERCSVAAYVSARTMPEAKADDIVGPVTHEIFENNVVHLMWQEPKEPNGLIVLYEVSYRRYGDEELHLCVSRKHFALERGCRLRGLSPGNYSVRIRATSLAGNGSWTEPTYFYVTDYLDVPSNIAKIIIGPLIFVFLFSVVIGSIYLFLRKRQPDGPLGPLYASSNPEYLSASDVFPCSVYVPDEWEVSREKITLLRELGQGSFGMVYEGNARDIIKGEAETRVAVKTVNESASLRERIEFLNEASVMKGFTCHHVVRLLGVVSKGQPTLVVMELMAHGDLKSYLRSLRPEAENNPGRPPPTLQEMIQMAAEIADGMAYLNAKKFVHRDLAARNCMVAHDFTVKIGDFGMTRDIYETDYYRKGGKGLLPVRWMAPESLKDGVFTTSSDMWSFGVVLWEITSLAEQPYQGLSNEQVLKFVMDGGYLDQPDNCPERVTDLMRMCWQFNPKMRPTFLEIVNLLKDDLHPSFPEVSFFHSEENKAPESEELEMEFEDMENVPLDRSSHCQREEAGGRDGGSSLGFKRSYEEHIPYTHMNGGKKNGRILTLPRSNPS

Structure (SMILES): COc1ccc2ncnc(Nc3cccc(F)c3)c2c1 [5ay, N-(3-Fluorophenyl)-6-Methoxy-4-Quinazolinamine]
- remaining activity at 10 µM (Snk(h); [1]): 80%
- remaining activity at 10 µM (PRKG2(h); [1]): 113%
- remaining activity at 10 µM (MAK(h); [1]): 74%
- remaining activity at 10 µM (IR(h), activated; [1]): 71%
- remaining activity at 10 µM (PKA(h); [1]): 97%
- remaining activity at 10 µM (VRK1(h); [1]): 89%
- remaining activity at 10 µM (SIK2(h); [1]): 65%
- remaining activity at 10 µM (Rsk2(h); [1]): 70%

Structure (SMILES): Fc1ccc(CNc2ncnc3ccc(F)cc23)cc1 [5aa, 6-Fluoro-N-(4-fluorobenzyl)-4-Quinazolinamine]
- remaining activity at 10 µM (Snk(h); [2]): 98%
- remaining activity at 10 µM (PRKG2(h); [2]): 103%
- remaining activity at 10 µM (MAK(h); [2]): 89%
- remaining activity at 10 µM (IR(h), activated; [2]): 98%
- remaining activity at 10 µM (PKA(h); [2]): 103%
- remaining activity at 10 µM (VRK1(h); [2]): 94%
- remaining activity at 10 µM (SIK2(h); [2]): 91%
- remaining activity at 10 µM (Rsk2(h); [2]): 93%

Structure (SMILES): Fc1ccc2ncnc(NCCc3ccc(Cl)cc3)c2c1 [5at, N-[2-(4-Chlorophenyl)Ethyl]-6-Fluoro-4-Quinazolinamine]
- remaining activity at 10 µM (Snk(h); [3]): 100%
- remaining activity at 10 µM (PRKG2(h); [3]): 79%
- remaining activity at 10 µM (MAK(h); [3]): 76%
- remaining activity at 10 µM (IR(h), activated; [3]): 76%
- remaining activity at 10 µM (PKA(h); [3]): 106%
- remaining activity at 10 µM (VRK1(h); [3]): 79%
- remaining activity at 10 µM (SIK2(h); [3]): 84%
- remaining activity at 10 µM (Rsk2(h); [3]): 73%

Structure (SMILES): Fc1ccc(CCNc2ncnc3ccc(F)cc23)cc1 [5as, 6-Fluoro-N-[2-(4-Fluorophenyl)Ethyl]-4-Quinazolinamine]
- remaining activity at 10 µM (Snk(h); [4]): 89%
- remaining activity at 10 µM (PRKG2(h); [4]): 96%
- remaining activity at 10 µM (MAK(h); [4]): 77%
- remaining activity at 10 µM (IR(h), activated; [4]): 64%
- remaining activity at 10 µM (PKA(h); [4]): 101%
- remaining activity at 10 µM (VRK1(h); [4]): 82%
- remaining activity at 10 µM (SIK2(h); [4]): 97%
- remaining activity at 10 µM (Rsk2(h); [4]): 79%
